Measurements as given in the NIST ThermoML archive (doi:10.1016/j.jct.2014.08.005).
± gives the expanded uncertainty stated by the source.

Key:
[1] = Liquid, Vibrating tube method
[2] = wn = mass fraction of the nth substance listed; conditions: 101 kPa, Liquid, Vibrating tube method

CC(O)COC(C)COC(C)CO (configuration not stated) [2-[2-(2-hydroxypropoxy)propoxy]-1-propanol]
[1], 101 kPa
Conditions | mass density [kg/m3]
293.15 K | 1017.5 ± 1
303.15 K | 1009.5 ± 1
313.15 K | 1001.5 ± 1
323.15 K | 993.4 ± 1
333.15 K | 985.2 ± 1
343.15 K | 976.9 ± 1

CC(O)COC(C)COC(C)CO (configuration not stated) [2-[2-(2-hydroxypropoxy)propoxy]-1-propanol] + O
mass density [kg/m3], [2]
Conditions | 293.15 K | 303.15 K | 313.15 K | 323.15 K | 333.15 K | 343.15 K
w1 = 0.2 | 1019.4 ± 1 | 1015.2 ± 1 | 1010.2 ± 1 | 1004.5 ± 1 | 998.4 ± 1 | 991.6 ± 1
w1 = 0.4 | 1037.1 ± 1 | 1030.1 ± 1 | 1022.9 ± 1 | 1015.5 ± 1 | 1007.7 ± 1 | 999.6 ± 1
w1 = 0.6 | 1041.1 ± 1 | 1033.2 ± 1 | 1025.2 ± 1 | 1017.2 ± 1 | 1008.7 ± 1 | 1000.2 ± 1
w1 = 0.8 | 1030.7 ± 1 | 1023.1 ± 1 | 1015.4 ± 1 | 1007.6 ± 1 | 999.5 ± 1 | 990.9 ± 1
w1 = 1 | 1017.5 ± 1 | 1009.5 ± 1 | 1001.5 ± 1 | 993.4 ± 1 | 985.2 ± 1 | 976.9 ± 1

OCCOCCOCCO [triethylene glycol]
[1], 101.33 kPa
Conditions | mass density [kg/m3]
293.15 K | 1124.7 ± 1
303.15 K | 1117 ± 1
313.15 K | 1109.2 ± 1
323.15 K | 1101.5 ± 1
333.15 K | 1093.7 ± 1
343.15 K | 1085.9 ± 1
